Here are results for six compounds from ChEMBL document CHEMBL5247629, “C-6 fluorinated casuarines as highly potent and selective amyloglucosidase inhibitors: Synthesis and structure-activity relationship study” (Eur J Med Chem, 2022).

SMILES strings stand for the structures.

Experiment [1] addresses T1, Alpha-glucosidase (Saccharomyces cerevisiae S288c, UniProt P53341+P38158+P07265). In words: Inhibition of yeast alpha-glucosidase using p-nitrophenyl glycoside as substrate by spectrometric method. In kind it is protein assay.
In experiment [2] the test system is Oryza sativa. In words: Inhibition of rice alpha-glucosidase using p-nitrophenyl glycoside as substrate at 1000 uM by spectrometric method relative to control.
Experiment [3] can be described thus: Inhibition of rat intestinal maltase using maltose as substrate at pH 6.8 by colorimetric method. It is filed as tissue-based, Intestine.
The subject of experiment [4] is Prunus dulcis. In words: Inhibition of almond beta-glucosidase using p-nitrophenyl glycoside as substrate at 1000 uM by spectrometric method relative to control.
Experiment [5] is filed under the species Bos taurus. In words: Inhibition of bovine liver beta-glucosidase using p-nitrophenyl glycoside as substrate at 1000 uM by spectrometric method relative to control. In kind it is tissue-based.
Experiment [6] concerns the target T2, Alpha-mannosidase (Canavalia ensiformis) (UniProt C0HJB3).
T2 sequence (whole entry): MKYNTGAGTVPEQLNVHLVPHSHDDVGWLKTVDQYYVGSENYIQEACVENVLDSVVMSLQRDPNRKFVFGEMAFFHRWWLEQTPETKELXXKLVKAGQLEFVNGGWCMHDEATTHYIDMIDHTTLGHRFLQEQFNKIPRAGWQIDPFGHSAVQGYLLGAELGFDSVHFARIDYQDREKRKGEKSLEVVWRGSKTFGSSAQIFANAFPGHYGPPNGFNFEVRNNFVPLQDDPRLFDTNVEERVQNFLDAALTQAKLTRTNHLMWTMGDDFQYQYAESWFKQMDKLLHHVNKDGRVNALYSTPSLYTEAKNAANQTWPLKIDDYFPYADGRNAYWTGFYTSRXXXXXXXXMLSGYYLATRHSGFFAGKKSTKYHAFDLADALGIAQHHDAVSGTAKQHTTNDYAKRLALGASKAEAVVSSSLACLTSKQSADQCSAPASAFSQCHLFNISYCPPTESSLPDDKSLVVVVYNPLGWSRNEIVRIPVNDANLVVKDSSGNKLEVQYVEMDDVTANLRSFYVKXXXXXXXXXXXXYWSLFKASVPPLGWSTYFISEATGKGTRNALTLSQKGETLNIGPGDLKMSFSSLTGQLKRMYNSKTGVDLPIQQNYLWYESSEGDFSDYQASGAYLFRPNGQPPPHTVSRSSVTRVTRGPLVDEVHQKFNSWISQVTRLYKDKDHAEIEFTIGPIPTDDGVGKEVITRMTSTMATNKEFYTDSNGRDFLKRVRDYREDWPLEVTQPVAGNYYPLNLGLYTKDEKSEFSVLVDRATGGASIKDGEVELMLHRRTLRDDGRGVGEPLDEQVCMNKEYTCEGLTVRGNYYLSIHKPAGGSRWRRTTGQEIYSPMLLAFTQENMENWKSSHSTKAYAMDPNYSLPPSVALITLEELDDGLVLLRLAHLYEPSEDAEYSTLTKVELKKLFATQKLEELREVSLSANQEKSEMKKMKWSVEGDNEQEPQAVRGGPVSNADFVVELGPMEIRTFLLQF
In words: Inhibition of jack bean alpha-mannosidase using p-nitrophenyl glycoside as substrate at 1000 uM by spectrometric method relative to control.

In experiment [7] the target is Alpha-galactosidase (Coffea arabica) (UniProt Q42656). Nature of the experiment: Inhibition of coffee bean alpha-galactosidase using p-nitrophenyl glycoside as substrate at 1000 uM by spectrometric method relative to control.
Alpha-galactosidase (Coffea arabica), sequence (Q42656 16-378 limits assumed): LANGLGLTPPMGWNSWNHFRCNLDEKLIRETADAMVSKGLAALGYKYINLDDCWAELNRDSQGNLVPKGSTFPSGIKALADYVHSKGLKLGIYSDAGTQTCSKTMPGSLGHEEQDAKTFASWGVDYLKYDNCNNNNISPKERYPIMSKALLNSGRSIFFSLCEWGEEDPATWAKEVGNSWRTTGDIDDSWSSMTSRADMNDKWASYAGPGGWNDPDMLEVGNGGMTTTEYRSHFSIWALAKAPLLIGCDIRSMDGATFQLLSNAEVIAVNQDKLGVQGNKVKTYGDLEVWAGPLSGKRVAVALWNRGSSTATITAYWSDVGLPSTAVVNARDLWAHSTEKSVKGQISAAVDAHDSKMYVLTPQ
The species named for experiment [8] is Bos taurus. Nature of the experiment: Inhibition of bovine liver beta-galactosidase using p-nitrophenyl glycoside as substrate at 1000 uM by spectrometric method relative to control. In kind it is tissue-based.
In experiment [9] the test system is Helix pomatia. Nature of the experiment: Inhibition of snail beta-mannosidase using p-nitrophenyl glycoside as substrate at 1000 uM by spectrometric method relative to control.
The target in experiment [10] is T3, Tissue alpha-L-fucosidase (Bos taurus) (UniProt Q2KIM0).
T3 sequence (whole entry): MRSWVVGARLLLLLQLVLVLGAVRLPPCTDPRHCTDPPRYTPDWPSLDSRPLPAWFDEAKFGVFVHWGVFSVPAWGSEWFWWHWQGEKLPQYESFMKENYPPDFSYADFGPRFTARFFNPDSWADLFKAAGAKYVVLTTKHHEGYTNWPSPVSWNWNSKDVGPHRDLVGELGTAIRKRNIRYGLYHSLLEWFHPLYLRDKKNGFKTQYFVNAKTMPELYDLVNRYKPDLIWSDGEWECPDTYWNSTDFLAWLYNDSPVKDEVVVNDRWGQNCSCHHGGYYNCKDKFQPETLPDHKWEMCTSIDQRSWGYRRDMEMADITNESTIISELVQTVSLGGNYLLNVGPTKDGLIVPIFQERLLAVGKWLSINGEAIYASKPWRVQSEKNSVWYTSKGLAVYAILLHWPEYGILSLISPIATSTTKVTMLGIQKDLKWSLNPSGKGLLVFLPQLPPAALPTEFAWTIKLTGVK
In words: Inhibition of bovine kidney alpha-L-fucosidase using p-nitrophenyl glycoside as substrate at 1000 uM by spectrometric method relative to control. In kind it is tissue-based.

A short description of experiment [11]: Inhibition of porcine kidney alpha/alpha-trehalase using p-nitrophenyl glycoside as substrate by spectrometric method. The arrangement: species or system Sus scrofa.
A short description of experiment [12]: Inhibition of Aspergillus niger amyloglucosidase using p-nitrophenyl glycoside as substrate by spectrometric method.
The subject of experiment [13] is Penicillium decumbens. In words: Inhibition of Penicillium decumbens alpha-L-rhamnosidase using p-nitrophenyl glycoside as substrate at 1000 uM by spectrometric method relative to control.
For experiment [14], the system named is Escherichia coli. In words: Inhibition of Escherichia coli beta-glucuronidase using p-nitrophenyl glycoside as substrate at 1000 uM by spectrometric method relative to control.
Experiment [15] is filed under the species Bos taurus. In words: Inhibition of bovine liver beta-glucuronidase using p-nitrophenyl glycoside as substrate at 1000 uM by spectrometric method relative to control. It is filed as tissue-based.
Experiment [16] has as its system Penicillium decumbens. Nature of the experiment: Inhibition of Penicillium decumbens alpha-L-rhamnosidase at 1000 uM relative to control.
Experiment [17] concerns the target T1, Alpha-glucosidase. Nature of the experiment: Inhibition of yeast alpha-glucosidase. In kind it is protein assay.
Experiment [18] in a line: Inhibition of rice alpha-glucosidase. The arrangement: species or system Oryza sativa.
Experiment [19] can be described thus: Inhibition of rat intestinal maltase. In kind it is tissue-based, Intestine.
The test system of experiment [20] is Prunus dulcis. In words: Inhibition of almond beta-glucosidase at 1000 uM relative to control.
The species entered for experiment [21] is Bos taurus. In words: Inhibition of bovine liver beta-glucosidase at 1000 uM relative to control. It is filed as tissue-based.
Experiment [22] concerns the target Alpha-galactosidase (Coffea arabica) (UniProt Q42656). In words: Inhibition of coffee bean alpha-galactosidase at 1000 uM relative to control.
The species named for experiment [23] is Bos taurus. Nature of the experiment: Inhibition of bovine liver beta-galactosidase at 1000 uM relative to control.
The target in experiment [24] is T2, Alpha-mannosidase (Canavalia ensiformis). Nature of the experiment: Inhibition of jack bean alpha-mannosidase at 1000 uM relative to control.
Experiment [25] deals with Helix pomatia. Nature of the experiment: Inhibition of snail beta-mannosidase at 1000 uM relative to control.
Experiment [26] concerns the target T3, Tissue alpha-L-fucosidase (Bos taurus). In words: Inhibition of bovine kidney alpha-L-fucosidase at 1000 uM relative to control. It is filed as tissue-based.
A short description of experiment [27]: Inhibition of porcine kidney alpha/alpha-trehalase. It is filed as tissue-based, Sus scrofa.
The nature of experiment [28]: Inhibition of Aspergillus niger amyloglucosidase.
Experiment [29] concerns Escherichia coli. In words: Inhibition of Escherichia coli beta-glucuronidase at 1000 uM relative to control.
Experiment [30] is filed under the species Bos taurus. Nature of the experiment: Inhibition of bovine liver beta-glucuronidase at 1000 uM relative to control. It is filed as tissue-based.
The target in experiment [31] is Alpha-glucosidase (Saccharomyces cerevisiae S288c) (UniProt P53341+P38158+P07265). Nature of the experiment: Inhibition of yeast alpha-glucosidase using p-nitrophenyl glycoside as substrate at 1000 uM by spectrometric method relative to control. In kind it is protein assay.
The species named for experiment [32] is Rattus norvegicus. In words: Inhibition of rat intestinal maltase using maltose as substrate at 1000 uM at pH 6.8 by colorimetric method relative to control. In kind it is tissue-based. As to conditions: Intestine.
Experiment [33] is described as follows: Inhibition of almond beta-glucosidase using p-nitrophenyl glycoside as substrate by spectrometric method. The arrangement: species or system Prunus dulcis.
Experiment [34] is filed under the species Sus scrofa. In words: Inhibition of porcine kidney alpha/alpha-trehalase using p-nitrophenyl glycoside as substrate at 1000 uM by spectrometric method relative to control. It is filed as tissue-based.
Experiment [35] in a line: Inhibition of Penicillium decumbens alpha-L-rhamnosidase using p-nitrophenyl glycoside as substrate by spectrometric method.
Experiment [36] can be described thus: Inhibition of rice alpha-glucosidase using p-nitrophenyl glycoside as substrate by spectrometric method. The arrangement: species or system Oryza sativa.
Experiment [37] in a line: Inhibition of bovine liver beta-glucosidase using p-nitrophenyl glycoside as substrate by spectrometric method. In kind it is tissue-based, Bos taurus.
The nature of experiment [38]: Inhibition of bovine liver beta-galactosidase using p-nitrophenyl glycoside as substrate by spectrometric method. The arrangement: species or system Bos taurus.

What is called IC50 is the midpoint of a concentration-inhibition curve. A word on the inhibition: it is the change of the read-out against control, counted positive when it falls. Broadly, the pIC50 is −log10 of the IC50, conventionally taken in molar units. Higher therefore signals a low IC50. Regarding `OC[C@@H]1[C@@H](O)[C@H](O)[C@H]2C[C@H](O)CN12`, the IC50 in experiment [1] was found to be 466 µM; in experiment [3], 248 µM; in experiment [11], 22 µM; in experiment [12] it was 42 µM. Moreover, the inhibition in experiment [2] was found to be 12.4%; in [4] it was 10.5%; in experiment [5] it was 13.9%; in experiment [6], 2.2%; in [7], 4.5%; in [8] it was 25.4%. Moreover, the inhibition was found to be 2.4% in [9]; 0% in experiment [10]; 11.2% in experiment [13]; 4.3% in experiment [14]; 14% in experiment [15]. Moreover, the pIC50 in [12] stood at 4.377.

Turning to `OC[C@@H]1[C@@H](O)[C@H](O)[C@H]2[C@H](O)[C@H](O)CN21`, the inhibition in experiment [16] was 13.2%; in experiment [20] it was 31.9%; in experiment [21], 1.9%; in experiment [22], 6%; in experiment [23] it was 5.9%; in experiment [24] it was 1.1%. For the same compound, the inhibition in [25] worked out at 3%; in experiment [26], 0%; in experiment [29] it was 3.1%; in [30], 18.4%. Further, the IC50 in experiment [17] worked out at 46 µM; in [18] it was 68 µM; in experiment [19], 13 µM; in experiment [27] it was 9.7 µM; in experiment [28] it was 5.3 µM. Further, in [12], the negative logarithm of the IC50 (pIC50) was determined as 5.276.

As to `OC[C@@H]1[C@@H](O)[C@H](O)[C@H]2[C@H](O)[C@@H](O)CN21` [CASUARINE], the inhibition in experiment [16] came to 4.6%; in experiment [20] it was 12%; in [21], 7.5%; in experiment [22] it was 3.7%; in experiment [23] it was 10.2%; in experiment [24], 0%. Also, the inhibition in [25] was determined as 0%; in experiment [26] it was 0%; in [29], 1.8%; in experiment [30], 17.3%. The IC50 in experiment [17] was found to be 71 µM; in experiment [18], 14 µM; in [19], 3.1 µM; in [27], 157 µM; in experiment [28] it was 6.3 µM. In experiment [12], the pIC50 was 5.201.

`OC[C@@H]1[C@@H](O)[C@H](O)[C@H]2[C@H](O)[C@H](F)CN21`: the inhibition in [31] worked out at 12%; in experiment [2] it was 12.7%; in experiment [32] it was 33%; in experiment [5], 43.8%; in experiment [6], 5.8%; in experiment [7], 1.7%. The inhibition amounted to 47.6% in experiment [8]; 5.9% in [9]; 7.6% in experiment [10]; 15.6% in experiment [34]; 4.3% in experiment [14]; 11.6% in experiment [15]. The results for the IC50 in [33], in [12] and in experiment [35] were 395 µM, 0.14 µM and 488 µM, respectively. In addition, the pIC50 in [12] is on record as 6.854.

`OC[C@@H]1[C@@H](O)[C@H](O)[C@H]2[C@H](O)C(F)(F)CN21`: the inhibition stood at 24% in experiment [31]; 6.3% in experiment [6]; 1.2% in experiment [7]; 0% in [9]; 6.8% in experiment [10]; 5.9% in experiment [34]. The results for the inhibition in experiment [13], in [14] and in experiment [15] were 5.6%, 2.6% and 15.9%, respectively. In addition, the IC50 in [36] amounted to 48 µM; in experiment [3], 167 µM; in [33], 266 µM; in [37], 747 µM; in [38], 390 µM; in [12], 2.1 µM. The pIC50 in experiment [12] came out at 5.678.

Take `OC[C@@H]1[C@@H](O)[C@H](O)[C@H]2C[C@@H](O)CN12`: the inhibition in experiment [31] came out at 44.1%; in [4] it was 13.6%; in experiment [5], 21.9%; in experiment [6], 6.3%; in experiment [7] it was 4.4%; in experiment [8], 5.9%. Also, the inhibition in experiment [9] stood at 3.6%; in experiment [10] it was 14.8%; in experiment [13], 6.3%; in [14], 20.5%; in experiment [15], 10.8%. The IC50 in [36] worked out at 234 µM; in [3] it was 72 µM; in experiment [11], 124 µM; in experiment [12] it was 40 µM. The negative logarithm of the IC50 (pIC50) in experiment [12] stood at 4.398.
